Measured values reported in BindingDB's records for doi:10.1021/acs.jmedchem.8b01906 (Siteone Therapeutics, 2019).
pKd: −log10 of the molar value.

Assay: Binding affinity to human recombinant Nav1.7 by radioligand binding assay

Structure (SMILES)	pKd
Cc1nn([C@@H]2CCN([C@H](C)c3cc(Cl)cc(Cl)c3)C2)c2cc(F)c(C(=O)NS(=O)(=O)C3CC3)cc12	7.66
CS(=O)(=O)NC(=O)c1cc(C2CC2)c(OCC2CCN(Cc3cc(C(F)(F)F)ccc3Cl)CC2)cc1F [US9546164, 580]	8.46
